Measurements published in patent US20260224571A1, “AZACYCLOALKANE COMPOUND AND PHARMACEUTICAL COMPOSITION, AND USE THEREOF” (Prime Gene Therapeutics Co., Ltd., priority 2023, published 2026).

How the values were obtained:
[1] = target: ROCK1 (Homo sapiens, UniProt Q13464); assay: ROCK1 kinase enzymatic activity (HTRF, STK2 substrate); format: biochemical; settings: ROCK1 kinase reacted at room temperature for 20 minutes
Excerpt: (§1) The kinase activity data was expressed by comparing the kinase activity of the test compound and that of the blank group (containing only DMSO), and the IC50 value was obtained by curve fitting using Prism software (GraphPad7.0).

[2] = target: ROCK2 (Homo sapiens, UniProt O75116); assay: ROCK2 kinase enzymatic activity (HTRF, STK2 substrate); format: biochemical; settings: ROCK2 kinase reacted at room temperature for 30 minutes
Excerpt: as §1

Sequence of ROCK2 (O75116 whole entry): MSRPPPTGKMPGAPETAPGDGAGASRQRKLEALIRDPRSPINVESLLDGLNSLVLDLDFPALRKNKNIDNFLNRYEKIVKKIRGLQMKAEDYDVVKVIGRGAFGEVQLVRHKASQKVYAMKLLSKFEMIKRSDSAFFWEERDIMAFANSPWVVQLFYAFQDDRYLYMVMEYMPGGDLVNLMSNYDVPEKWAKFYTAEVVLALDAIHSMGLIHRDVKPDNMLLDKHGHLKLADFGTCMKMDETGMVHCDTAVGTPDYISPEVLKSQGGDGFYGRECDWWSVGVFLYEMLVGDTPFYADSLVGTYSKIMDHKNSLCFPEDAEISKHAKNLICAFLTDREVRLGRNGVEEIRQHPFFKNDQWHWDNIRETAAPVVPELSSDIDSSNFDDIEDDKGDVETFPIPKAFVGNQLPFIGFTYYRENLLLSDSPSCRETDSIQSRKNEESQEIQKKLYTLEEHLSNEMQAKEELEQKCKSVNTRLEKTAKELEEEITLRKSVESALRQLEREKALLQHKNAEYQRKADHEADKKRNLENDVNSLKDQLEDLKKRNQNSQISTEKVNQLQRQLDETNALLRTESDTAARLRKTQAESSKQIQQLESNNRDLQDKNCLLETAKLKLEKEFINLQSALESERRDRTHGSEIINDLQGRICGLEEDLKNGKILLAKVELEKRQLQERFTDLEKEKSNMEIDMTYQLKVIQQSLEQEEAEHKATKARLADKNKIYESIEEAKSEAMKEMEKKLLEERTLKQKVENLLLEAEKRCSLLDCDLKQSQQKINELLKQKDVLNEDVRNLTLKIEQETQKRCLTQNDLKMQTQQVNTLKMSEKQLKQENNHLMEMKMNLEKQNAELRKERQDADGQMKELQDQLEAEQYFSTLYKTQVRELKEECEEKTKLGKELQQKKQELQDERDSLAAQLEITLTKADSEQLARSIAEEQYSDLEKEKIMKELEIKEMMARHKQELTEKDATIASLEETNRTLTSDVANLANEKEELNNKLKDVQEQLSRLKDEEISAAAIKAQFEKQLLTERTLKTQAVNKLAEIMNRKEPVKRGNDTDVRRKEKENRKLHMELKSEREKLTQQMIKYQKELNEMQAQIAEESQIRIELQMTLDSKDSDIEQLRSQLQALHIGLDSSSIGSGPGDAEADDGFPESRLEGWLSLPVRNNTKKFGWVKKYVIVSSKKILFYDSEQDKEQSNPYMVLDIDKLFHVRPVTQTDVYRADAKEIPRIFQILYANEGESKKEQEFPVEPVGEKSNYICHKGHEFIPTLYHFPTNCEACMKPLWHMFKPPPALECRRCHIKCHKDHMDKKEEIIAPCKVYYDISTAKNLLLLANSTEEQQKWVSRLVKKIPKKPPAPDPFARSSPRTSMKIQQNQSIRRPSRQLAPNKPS
Sequence of ROCK1 (Q13464 whole entry): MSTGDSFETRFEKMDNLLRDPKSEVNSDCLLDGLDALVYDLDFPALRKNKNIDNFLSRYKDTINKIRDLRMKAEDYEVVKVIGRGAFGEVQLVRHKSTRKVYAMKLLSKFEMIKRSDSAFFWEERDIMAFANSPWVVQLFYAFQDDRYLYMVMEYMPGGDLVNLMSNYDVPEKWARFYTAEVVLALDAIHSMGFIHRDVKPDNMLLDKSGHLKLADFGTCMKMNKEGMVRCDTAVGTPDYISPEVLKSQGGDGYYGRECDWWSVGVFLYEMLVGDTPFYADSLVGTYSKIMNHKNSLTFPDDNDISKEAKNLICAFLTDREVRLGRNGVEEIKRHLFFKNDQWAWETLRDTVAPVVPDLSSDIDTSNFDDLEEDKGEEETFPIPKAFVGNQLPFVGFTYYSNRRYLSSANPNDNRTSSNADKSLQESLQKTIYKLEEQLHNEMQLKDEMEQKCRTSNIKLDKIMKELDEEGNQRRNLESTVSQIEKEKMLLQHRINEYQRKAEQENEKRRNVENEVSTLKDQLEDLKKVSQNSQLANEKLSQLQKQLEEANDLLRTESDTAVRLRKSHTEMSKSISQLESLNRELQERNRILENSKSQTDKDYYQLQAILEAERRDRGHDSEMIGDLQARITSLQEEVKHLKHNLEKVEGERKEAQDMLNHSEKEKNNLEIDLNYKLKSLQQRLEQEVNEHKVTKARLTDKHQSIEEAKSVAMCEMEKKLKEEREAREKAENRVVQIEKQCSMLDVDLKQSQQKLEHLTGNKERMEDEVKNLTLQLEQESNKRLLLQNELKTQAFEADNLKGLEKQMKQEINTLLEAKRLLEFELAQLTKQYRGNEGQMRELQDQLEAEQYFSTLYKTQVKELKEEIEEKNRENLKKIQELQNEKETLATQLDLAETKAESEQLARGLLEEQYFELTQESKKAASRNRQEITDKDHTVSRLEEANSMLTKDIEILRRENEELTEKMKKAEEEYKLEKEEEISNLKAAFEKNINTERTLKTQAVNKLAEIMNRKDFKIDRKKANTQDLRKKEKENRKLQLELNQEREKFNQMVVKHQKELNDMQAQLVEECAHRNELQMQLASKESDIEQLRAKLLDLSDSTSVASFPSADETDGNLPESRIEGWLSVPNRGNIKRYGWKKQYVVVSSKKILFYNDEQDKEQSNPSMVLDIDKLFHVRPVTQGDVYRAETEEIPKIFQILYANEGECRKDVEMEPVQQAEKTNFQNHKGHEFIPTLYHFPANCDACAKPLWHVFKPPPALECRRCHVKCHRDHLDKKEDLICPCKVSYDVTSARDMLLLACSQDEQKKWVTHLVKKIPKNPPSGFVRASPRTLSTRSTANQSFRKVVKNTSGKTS

Compound | IC50 [1] [nM] | IC50 [2] [nM]
N#CCC1(n2cc(-c3ncnc4[nH]ccc34)c(N)n2)CN(C(=O)C2CC2)C1 [Example 22, 2-(3-(3-amino-4-(7H-pyrrolo[2,3-d]pyrimidin-4-yl)-1H-pyrazol-1-yl)-1-(cyclopropanecarbonyl)azetidine-3-yl)acetonitrile] | < 50 | < 50
N#CCC1(n2cc(-c3ncnc4[nH]ccc34)c(N)n2)CN(S(=O)(=O)CCC(F)(F)F)C1 [Example 4, 2-(3-(3-amino-4-(7H-pyrrolo[2,3-d]pyrimidin-4-yl)-1H-pyrazol-1-yl)-1-((3,3,3-trifluoropropyl)sulfonyl)azetidine-3-yl)acetonitrile] | < 5 | < 5
N#CCC1(n2cc(-c3ncnc4[nH]ccc34)c(N)n2)CN(S(=O)(=O)NS(N)(=O)=O)C1 [Example 42, 3-(3-amino-4-(7H-pyrrolo[2,3-d]pyrimidin-4-yl)-1H-pyrazol-1-yl)-3-(cyanomethyl)-N-sulfamoylazetidine-1-sulfonamide] | < 100 | < 50
N#CCC1(n2cc(-c3ncnc4[nH]ccc34)c(N)n2)CN(C(=O)N2CC(F)(F)C2)C1 [Example 13, 2-(3-(3-amino-4-(7H-pyrrolo[2,3-d]pyrimidin-4-yl)-1H-pyrazol-1-yl)-1-(3,3-difluoroazetidine-1-carbonyl)azetidin-3-yl)acetonitrile] | < 50 | < 50
N#CCC1(n2cc(-c3ncnc4[nH]ccc34)c(N)n2)CN(C(=O)C(F)(F)C(F)(F)F)C1 [Example 27] | < 10 | < 10
N#CCC1(n2cc(-c3ncnc4[nH]ccc34)c(N)n2)CN(C(=O)NC2CC2)C1 [Example 12, 3-(3-amino-4-(7H-pyrrolo[2,3-d]pyrimidin-4-yl)-1H-pyrazol-1-yl)-3-(cyanomethyl)-N-cyclopropylazetidine-1-formamide] | < 50 | < 50
CC(C)S(=N)(=O)N1CC(CC#N)(n2cc(-c3ncnc4[nH]ccc34)c(N)n2)C1 (stereo not shown) [Example 39, 2-(3-(3-amino-4-(7H-pyrrolo[2,3-d]pyrimidin-4-yl)-1H-pyrazol-1-yl)-1-(prop-2-yl-sulfonylimino)azetidine-3-yl)acetonitrile] | < 50 | < 50
CN(C)CC(=O)N1CC(CC#N)(n2cc(-c3ncnc4[nH]ccc34)c(N)n2)C1 [Example 28, 2-(3-(3-amino-4-(7H-pyrrolo[2,3-d]pyrimidin-4-yl)-1H-pyrazol-1-yl)-1-(dimethylglycine)azetidine-3-yl)acetonitrile] | < 50 | < 50
CCNC(=O)N1CC(CC#N)(n2cc(-c3ncnc4[nH]ccc34)c(N)n2)C1 [Example 14, 3-(3-amino-4-(7H-pyrrolo[2,3-d]pyrimidin-4-yl)-1H-pyrazol-1-yl)-3-(cyanomethyl)-N-ethylazetidine-1-formamide] | < 5 | < 5
N#CCC1(n2cc(-c3ncnc4[nH]ccc34)c(N)n2)CN(C(=O)NCCO)C1 [Example 17, 3-(3-amino-4-(7H-pyrrolo[2,3-d]pyrimidin-4-yl)-1H-pyrazol-1-yl)-3-(cyanomethyl)-N-(2-hydroxyethyl)azetidine-1-formamide] | < 50 | < 50
N#CCC1(n2cc(-c3ncnc4[nH]ccc34)c(N)n2)CN(C(=O)CC(F)(F)F)C1 [Example 30] | < 5 | < 10
N#CCC1(n2cc(-c3ncnc4[nH]ccc34)c(N)n2)CN(C(=O)NCC(F)(F)F)C1 [Example 11, 3-(3-amino-4-(7H-pyrrolo[2,3-d]pyrimidin-4-yl)-1H-pyrazol-1-yl)-3-(cyanomethyl)-N-(2,2,2-trifluoroethyl)azetidine-1-formamide] | < 10 | < 10
N#CCC1(n2cc(-c3ncnc4[nH]ccc34)c(N)n2)CN(C(=O)C2(C#N)CC2)C1 [Example 26, 1-(3-(3-amino-4-(7H-pyrrolo[2,3-d]pyrimidin-4-yl)-1H-pyrazol-1-yl)-3-(cyanomethyl)azetidine-1-carbonyl)cyclopropane-1-nitrile] | < 10 | < 10
N#CCC1(n2cc(-c3ncnc4[nH]ccc34)c(N)n2)CN(C(=O)C2(F)CC2)C1 [Example 24, 2-(3-(3-amino-4-(7H-pyrrolo[2,3-d]pyrimidin-4-yl)-1H-pyrazol-1-yl)-1-(1-fluorocyclopropane-1-carbonyl)azetidine-3-yl)acetonitrile] | < 50 | < 50

Second part, the compound after the results:

IC50 [1] [nM] | IC50 [2] [nM] | Compound
> 100 | > 100 | N#CCC1(n2cc(-c3ncnc4[nH]ccc34)c(C(N)=O)n2)CN(S(=O)(=O)C2CC2)C1 [Example 67, 1-(3-(cyanomethyl)-1-(cyclopropylsulfonyl)azetidine-3-yl)-4-(7H-pyrrolo[2,3-d]pyrimidin-4-yl)-1H-pyrazol-3-formamide]
> 100 | > 100 | CCS(=O)(=O)N1CC(CC#N)(n2cc(-c3cc(-c4cnn(C)c4)cn4ncnc34)c(N)n2)C1 [Example 81]
> 100 | > 100 | CS(=O)(=O)N1CC(CC#N)(n2cc(-c3ncnc(NC4CCOCC4)n3)c(N)n2)C1 [Example 72, 2-(3-(3-amino-4-(4-((tetrahydro-2H-pyran-4-yl)amino)-1,3,5-triazin-2-yl)-1H-pyrazol-1-yl)-1-(methylsulfonyl)azetidine-3-yl)acetonitrile]
< 5 | < 5 | CC(N)CS(=O)(=O)N1CC(CC#N)(n2cc(-c3ncnc4[nH]ccc34)c(N)n2)C1 (stereo not shown) [Example 86, 2-(3-(3-amino-4-(7H-pyrrolo[2,3-d]pyrimidin-4-yl)-1H-pyrazol-1-yl)-1-((2-aminopropyl)sulfonyl)azetidine-3-yl)acetonitrile]
> 100 | > 100 | CCS(=O)(=O)N1CC(CC#N)(n2cc(-c3cc(-c4cnn(C)c4)nn4ccnc34)c(N)n2)C1 [Example 80]
> 100 | > 100 | CNC(=O)c1nn(C2(CC#N)CN(S(=O)(=O)C(C)C)C2)cc1-c1ncnc2[nH]ccc12 [Example 64, 1-(3-(cyanomethyl)-1-(isopropylsulfonyl)azetidine-3-yl)-N-methyl-4-(7H-pyrrolo[2,3-d]pyrimidin-4-yl)-1H-pyrazol-3-formamide]
< 50 | > 100 | CC(C)S(=O)(=O)N1CC(CC#N)(n2cc(-c3ncnc4[nH]ccc34)c(O)n2)C1 [Example 57, 2-(3-(3-hydroxy-4-(7H-pyrrolo[2,3-d]pyrimidin-4-yl)-1H-pyrazol-1-yl)-1-(isopropylsulfonyl)azetidine-3-yl)acetonitrile]
< 50 | > 100 | N#CCC1(n2cc(-c3ncnc4[nH]ccc34)c(O)n2)CN(S(=O)(=O)C2CC2)C1 [Example 58, 2-(1-(cyclopropylsulfonyl)-3-(3-hydroxy-4-(7H-pyrrolo[2,3-d]pyrimidin-4-yl)-1H-pyrazol-1-yl)azetidine-3-yl)acetonitrile]
> 100 | > 100 | CS(=O)(=O)N1CC(CC#N)(n2cc(-c3ccnc(NCCO)n3)c(N)n2)C1 [Example 78]
< 10 | < 10 | N#CCC1(n2cc(-c3ncnc4[nH]ccc34)c(N)n2)CN(S(=O)(=O)N(CC(F)(F)F)CC(F)(F)F)C1 [Example 43, 3-(3-amino-4-(7H-pyrrolo[2,3-d]pyrimidin-4-yl)-1H-pyrazol-1-yl)-3-(cyanomethyl)-N,N-bis(2,2,2-trifluoroethyl)azetidine-1-sulfonamide]
< 10 | < 10 | CN(C)S(=O)(=O)N1CC(CC#N)(n2cc(-c3ncnc4[nH]ccc34)c(N)n2)C1 [Example 51, 3-(3-amino-4-(7H-pyrrolo[2,3-d]pyrimidin-4-yl)-1H-pyrazol-1-yl)-3-(cyanomethyl)-N,N-dimethylazetidine-1-sulfonamide]
> 100 | > 100 | CNC(=O)c1nn(C2(CC#N)CN(S(=O)(=O)C3CC3)C2)cc1-c1ncnc2[nH]ccc12 [Example 65, 1-(3-(cyanomethyl)-1-(cyclopropylsulfonyl)azetidine-3-yl)-N-methyl-4-(7H-pyrrolo[2,3-d]pyrimidin-4-yl)-1H-pyrazol-3-formamide]
> 100 | > 100 | CCS(=O)(=O)N1CC(CC#N)(n2cc(-c3ncnc4[nH]ccc34)c(C(=O)NC)n2)C1 [Example 63, 1-(3-(cyanomethyl)-1-(ethylsulfonyl)azetidine-3-yl)-N-methyl-4-(7H-pyrrolo[2,3-d]pyrimidin-4-yl)-1H-pyrazol-3-formamide]
< 50 | > 100 | COc1nn(C2(CC#N)CN(S(=O)(=O)C(C)C)C2)cc1-c1ncnc2[nH]ccc12 [Example 59, 2-(1-(isopropylsulfonyl)-3-(3-methoxy-4-(7H-pyrrolo[2,3-d]pyrimidin-4-yl)-1H-pyrazol-1-yl)azetidine-3-yl)acetonitrile]
> 100 | > 100 | CN1CCC(Nc2ncnc(-c3cn(C4(CC#N)CN(S(C)(=O)=O)C4)nc3N)n2)CC1 [Example 71, 2-(3-(3-amino-4-(4-((1-methylpiperidin-4-yl)amino)-1,3,5-triazin-2-yl)-1H-pyrazol-1-yl)-1-(methylsulfonyl)azetidine-3-yl)acetonitrile]
< 50 | < 10 | COCCNS(=O)(=O)N1CC(CC#N)(n2cc(-c3ncnc4[nH]ccc34)c(N)n2)C1 [Example 48, 3-(3-amino-4-(7H-pyrrolo[2,3-d]pyrimidin-4-yl)-1H-pyrazol-1-yl)-3-(cyanomethyl)-N-(2-methoxyethyl)azetidine-1-sulfonamide]
> 100 | > 100 | N#CCC1(n2cc(-c3ncnc4[nH]ccc34)c(C(N)=O)n2)CN(S(=O)(=O)CC(F)(F)F)C1 [Example 60, 1-(3-(cyanomethyl)-1-((2,2,2-trifluoroethyl)sulfonyl)azetidine-3-yl)-4-(7H-pyrrolo[2,3-d]pyrimidin-4-yl)-1H-pyrazole-3-formamide]
> 100 | > 100 | CCS(=O)(=O)N1CC(CC#N)(n2cc(-c3ncnc4[nH]ccc34)c(C(N)=O)n2)C1 [Example 66, 1-(3-(cyanomethyl)-1-(ethylsulfonyl)azetidine-3-yl)-4-(7H-pyrrolo[2,3-d]pyrimidin-4-yl)-1H-pyrazol-3-formamide]
